≈ marks a conversion by molar mass, not a printed value.
Tests used:
[1] = molecular target: T1, mouse DHP-I (Mus musculus, UniProt P31428); assay: Test 2: stability against DHP-I (mouse); conditions: partly purified Mouse DHP-I; 100 μg (titer)/ml; 37° C., 3 hours; HPLC
T1 sequence (P31428 17-384): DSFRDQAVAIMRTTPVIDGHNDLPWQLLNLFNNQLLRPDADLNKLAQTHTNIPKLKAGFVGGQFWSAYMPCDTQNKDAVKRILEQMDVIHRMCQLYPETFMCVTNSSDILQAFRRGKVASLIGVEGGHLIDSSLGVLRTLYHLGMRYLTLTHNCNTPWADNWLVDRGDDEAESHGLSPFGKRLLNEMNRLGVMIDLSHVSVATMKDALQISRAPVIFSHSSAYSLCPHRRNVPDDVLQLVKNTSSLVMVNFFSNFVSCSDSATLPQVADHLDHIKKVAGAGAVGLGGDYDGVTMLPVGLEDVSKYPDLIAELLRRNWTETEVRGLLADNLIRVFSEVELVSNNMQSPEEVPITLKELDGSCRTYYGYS

[2] = system: E. faecalis W-73; assay: Test 1: Anti-Microbial Activities (MIC); assay type: cell-based; conditions: inoculants 10^6 CFU/ml; for MIC: Enterococcus faecalis, W73, Sensitivity Disk agar-N+5% Horse blood, read-out: minimum inhibiting concentrations (MIC)
Experimental: (§1) The minimum inhibiting concentrations (MIC, μg/ml) of the compounds according to the present invention to various pathogenic bacteria was measured in accordance with the method described in CHEMOTHERAPY, vol. 16, No. 1,99, 1968. The culture medium for measurement was Sensitivity Disk agar-N+5% Horse blood, and the amount of inoculants was 10^6 CFU/ml.

[3] = system: C. freundii GN346; assay: Test 1: Anti-Microbial Activities (MIC); assay type: cell-based; conditions: Sensitivity Disk agar-N+5% Horse blood, inoculants 10^6 CFU/ml; for MIC: Citrobacter freundii, read-out: minimum inhibiting concentrations (MIC)
Experimental: as §1

[4] = system: S. epidermidis ATCC14990; assay: Test 1: Anti-Microbial Activities (MIC); assay type: cell-based; conditions: Sensitivity Disk agar-N+5% Horse blood, inoculants 10^6 CFU/ml; for MIC: Staphylococcus epidermidis, read-out: minimum inhibiting concentrations (MIC)
Experimental: as §1

[5] = system: M. catarrhalis W-0500; assay: Test 1: Anti-Microbial Activities (MIC); assay type: cell-based; conditions: inoculants 10^6 CFU/ml; for MIC: Moraxella catarrhalis, W0500, Sensitivity Disk agar-N+5% Horse blood, read-out: minimum inhibiting concentrations (MIC)
Experimental: as §1

[6] = system: S. pneumoniae PRC9; assay: Test 1: Anti-Microbial Activities (MIC); assay type: cell-based; conditions: S. pneumoniae PRC9, penicillin-hyperresistant strain (PRSP), Sensitivity Disk agar-N+5% Horse blood, inoculants 10^6 CFU/ml; for MIC: Streptococcus pneumoniae, read-out: minimum inhibiting concentrations (MIC)
Experimental: as §1

[7] = system: E. hirae ATCC8043; assay: Test 1: Anti-Microbial Activities (MIC); assay type: cell-based; conditions: Sensitivity Disk agar-N+5% Horse blood, inoculants 10^6 CFU/ml; for MIC: Enterococcus hirae, read-out: minimum inhibiting concentrations (MIC)
Experimental: as §1

[8] = system: E. coli NIHJ JC-2; assay: Test 1: Anti-Microbial Activities (MIC); assay type: cell-based; conditions: inoculants 10^6 CFU/ml; for MIC: Escherichia coli, NIHJJC2, Sensitivity Disk agar-N+5% Horse blood, read-out: minimum inhibiting concentrations (MIC)
Experimental: as §1

[9] = system: S. aureus 209P JC-1; assay: Test 1: Anti-Microbial Activities (MIC); assay type: cell-based; conditions: Sensitivity Disk agar-N+5% Horse blood, inoculants 10^6 CFU/ml; for MIC: Staphylococcus aureus, read-out: minimum inhibiting concentrations (MIC)
Experimental: as §1

[10] = system: H. influenzae PRC2; assay: Test 1: Anti-Microbial Activities (MIC); assay type: cell-based; conditions: Sensitivity Disk agar-N+5% Horse blood, inoculants 10^6 CFU/ml; for MIC: Haemophilus influenzae, read-out: minimum inhibiting concentrations (MIC)
Experimental: as §1

[11] = system: P. vulgaris GN7919; assay: Test 1: Anti-Microbial Activities (MIC); assay type: cell-based; conditions: Sensitivity Disk agar-N+5% Horse blood, inoculants 10^6 CFU/ml; for MIC: Proteus vulgaris, read-out: minimum inhibiting concentrations (MIC)
Experimental: as §1

[12] = system: S. aureus M126; assay: Test 1: Anti-Microbial Activities (MIC); assay type: cell-based; conditions: S. aureus M126, methicillin-hyperresistant strain (MRSA), Sensitivity Disk agar-N+5% Horse blood, inoculants 10^6 CFU/ml; for MIC: Staphylococcus aureus, read-out: minimum inhibiting concentrations (MIC)
Experimental: as §1

[13] = system: K. pneumoniae PCI602; assay: Test 1: Anti-Microbial Activities (MIC); assay type: cell-based; conditions: Sensitivity Disk agar-N+5% Horse blood, inoculants 10^6 CFU/ml; for MIC: Klebsiella pneumoniae, read-out: minimum inhibiting concentrations (MIC)
Experimental: as §1

[14] = system: H. influenzae PRC44; assay: Test 1: Anti-Microbial Activities (MIC); assay type: cell-based; conditions: Sensitivity Disk agar-N+5% Horse blood, inoculants 10^6 CFU/ml; for MIC: Haemophilus influenzae, read-out: minimum inhibiting concentrations (MIC)
Experimental: as §1

[15] = molecular target: T2, porcine renal DHP-I (Sus scrofa, UniProt P22412); assay: Test 2: stability against DHP-I (porcine); conditions: partly purified Porcine DHP-I, 100 μg (titer)/ml, 37° C., HPLC
T2 sequence (P22412 17-384): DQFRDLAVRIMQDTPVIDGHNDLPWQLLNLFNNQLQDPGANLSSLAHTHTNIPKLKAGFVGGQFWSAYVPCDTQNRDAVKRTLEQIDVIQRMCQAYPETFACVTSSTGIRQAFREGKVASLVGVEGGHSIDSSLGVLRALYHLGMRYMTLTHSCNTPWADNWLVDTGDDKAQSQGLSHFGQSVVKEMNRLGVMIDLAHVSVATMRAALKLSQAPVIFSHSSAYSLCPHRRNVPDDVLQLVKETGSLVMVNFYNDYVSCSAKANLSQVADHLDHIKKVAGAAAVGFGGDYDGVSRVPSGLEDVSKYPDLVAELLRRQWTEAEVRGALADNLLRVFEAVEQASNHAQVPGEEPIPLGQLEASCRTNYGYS

[16] = Test 5: Acute Toxicity (i.v.); assay type: in vivo, mice (ICR, male); conditions: mice, 2,000 mg/kg i.v.
Experimental: The compounds of Examples 44, 62, 88, and 111 were tested again in the same manner as the above provided that cilastatin sodium was co-administered.

[17] = Sensitivity Disk agar-N+5% Horse blood
[18] = cilastatin sodium co-administered

Row | Compound | residual amounts (%) after 3 hours [1] | MIC [2] | MIC [3] | MIC [4] | MIC [5] | MIC [6] | MIC [7] | MIC [8] | MIC [9] | MIC [10] | MIC [11] | MIC [12] | MIC [13] | MIC [14] | residual amounts (%) after 3 hours [15] | further results
1 | C[C@@H](O)[C@H]1C(=O)N2C(C(=O)O)=C(SCCN=CN)C[C@H]12 [Compound A, imipenem, reference compound] | 14% | 0.78 µg/mL (≈ 2.61 µM) | 0.2 µg/mL (≈ 0.668 µM) | < 0.025 µg/mL | 0.05 µg/mL (≈ 0.167 µM) | 0.2 µg/mL (≈ 0.668 µM) | 0.78 µg/mL (≈ 2.61 µM) | 0.1 µg/mL (≈ 0.334 µM) | < 0.025 µg/mL | 0.78 µg/mL (≈ 2.61 µM) | 0.1 µg/mL (≈ 0.334 µM) | 25 µg/mL (≈ 83.5 µM) | 0.2 µg/mL (≈ 0.668 µM) | 12.5 µg/mL (≈ 41.8 µM) | <0.3% | –
2 | C[C@@H](O)[C@H]1C(=O)N2C(C(=O)[O-])=C(c3cn4cnc(C(=O)CO)c4s3)[C@H](C)[C@H]12.[Na+] [Example 71, Sodium (1S,5R,6S)-2-(7-Hydroxyacetylimidazo[5,1-b]thiazol-2-yl)-6-((1R)-1-hydroxyethyl)-1-methyl-1-carbapen-2-em-3-carboxylate] | <0.1% | 0.39 µg/mL | 0.39 µg/mL | < 0.025 µg/mL | < 0.025 µg/mL | 0.1 µg/mL | 0.39 µg/mL | < 0.025 µg/mL | < 0.025 µg/mL | < 0.025 µg/mL | < 0.025 µg/mL | 3.13 µg/mL | < 0.025 µg/mL | 0.05 µg/mL | 33% | –
3 | (1R,5S,6S)-6-((1R)-1-hydroxyethyl)-1-methyl-2-[(3S,5S)-5-(6-methylimidazo[5,1-b]thiazolium-2-yl)methylpyrrolidin-3-yl]thiocarbapen-2-em-3-carboxylic acid iodide [Compound B, reference compound] | – | – | – | – | – | – | – | – | – | – | – | – | – | – | – | minimum inhibiting concentrations (MIC) [2, 17]: 3.13 µg/mL; minimum inhibiting concentrations (MIC) [3]: 0.10 µg/mL; minimum inhibiting concentrations (MIC) [4]: 0.05 µg/mL; minimum inhibiting concentrations (MIC) [5, 17]: <0.025 µg/mL; minimum inhibiting concentrations (MIC) [6]: 0.39 µg/mL; minimum inhibiting concentrations (MIC) [7]: 1.56 µg/mL; minimum inhibiting concentrations (MIC) [8, 17]: 0.05 µg/mL; minimum inhibiting concentrations (MIC) [9]: <0.025 µg/mL; minimum inhibiting concentrations (MIC) [10]: 0.10 µg/mL; minimum inhibiting concentrations (MIC) [11]: 0.10 µg/mL; minimum inhibiting concentrations (MIC) [12]: 6.25 µg/mL; minimum inhibiting concentrations (MIC) [13]: 0.10 µg/mL; minimum inhibiting concentrations (MIC) [14]: 0.78 µg/mL
4 | C[C@@H](O)[C@H]1C(=O)N2C(C(=O)[O-])=C(c3cn4cnc(S(=O)(=O)N(C)C)c4s3)[C@H](C)[C@H]12.[Na+] [Example 88, Sodium (1S,5R,6S)-2-[7-(N,N-dimethylsulfamoyl)imidazo[5,1-b]thiazol-2-yl]-6-((1R)-1-hydroxyethyl)-1-methyl-1-carbapen-2-em-3-carboxylate] | <0.1% | 0.39 µg/mL | 3.13 µg/mL | < 0.025 µg/mL | < 0.025 µg/mL | 0.05 µg/mL | 0.39 µg/mL | 0.39 µg/mL | < 0.025 µg/mL | < 0.025 µg/mL | 0.78 µg/mL | 1.56 µg/mL | 0.39 µg/mL | 0.1 µg/mL | 73% | survival (acute toxicity) [16]: All of the animal survived; survival (acute toxicity) [16, 18]: All of the animal survived
5 | CCC(=O)c1ncn2cc(C3=C(C(=O)[O-])N4C(=O)[C@H]([C@@H](C)O)[C@H]4C3)sc12.[Na+] [Example 27, Sodium (5R,6S)-6-((1R)-1-Hydroxyethyl)-2-(7-propionylimidazo[5,1-b]thiazol-2-yl)-1-carbapen-2-em-3-carboxylate] | 1.2% | 0.1 µg/mL | 0.39 µg/mL | 0.05 µg/mL | < 0.025 µg/mL | 0.05 µg/mL | 0.39 µg/mL | 0.2 µg/mL | 0.05 µg/mL | < 0.025 µg/mL | 0.2 µg/mL | 0.78 µg/mL | 0.1 µg/mL | 0.05 µg/mL | 38% | –
6 | Cc1nc(S(C)(=O)=O)c2sc(C3=C(C(=O)[O-])N4C(=O)[C@H]([C@@H](C)O)[C@H]4[C@H]3C)cn12.[Na+] [Example 44, Sodium (1S,5R,6S)-6-((1R)-1-Hydroxyethyl)-2-(7-methanesulfonyl-5-methylimidazo[5,1-b]thiazol-2-yl)-1-methyl-1-carbapen-2-em-3-carboxylate] | – | 0.78 µg/mL | 12.5 µg/mL | 0.05 µg/mL | < 0.025 µg/mL | 0.1 µg/mL | 0.78 µg/mL | 0.78 µg/mL | 0.05 µg/mL | < 0.025 µg/mL | 0.78 µg/mL | 3.13 µg/mL | 1.56 µg/mL | 0.1 µg/mL | 100% | survival (acute toxicity) [16]: All of the animal survived; survival (acute toxicity) [16, 18]: All of the animal survived
7 | CC(=O)c1nc(C)n2cc(C3=C(C(=O)[O-])N4C(=O)[C@H]([C@@H](C)O)[C@H]4[C@H]3C)sc12.[Na+] [Example 19, Sodium (1S,5R,6S)-2-(7-Acetyl-5-methylimidazo[5,1-b]thiazol-2-yl)-6-((1R)-1-hydroxyethyl)-1-methyl-1-carbapen-2-em-3-carboxylate] | 45% | – | – | – | – | – | – | – | – | – | – | – | – | – | 77% | –
8 | C[C@@H](O)[C@H]1C(=O)N2C(C(=O)O)=C(S[C@@H]3CN[C@H](C(=O)N(C)C)C3)[C@H](C)[C@H]12 [Compound C, meropenem, reference compound] | 8.5% | – | – | – | – | – | – | – | – | – | – | – | – | – | 41% | –
9 | C[C@@H](O)[C@H]1C(=O)N2C(C(=O)[O-])=C(c3cn4cnc([S+](C)[O-])c4s3)[C@H](C)[C@H]12.[Na+] (stereo partly drawn) [Example 26, Sodium (1S,5R,6S)-6-((1R)-1-Hydroxyethyl)-2-(7-methanesulfinylimidazo[5,1-b]thiazol-2-yl)-1-methyl-1-carbapen-2-em-3-carboxylate] | 11% | 0.39 µg/mL | 1.56 µg/mL | < 0.025 µg/mL | 0.05 µg/mL | 0.1 µg/mL | 0.78 µg/mL | 0.05 µg/mL | < 0.025 µg/mL | < 0.025 µg/mL | 0.2 µg/mL | 6.25 µg/mL | 0.1 µg/mL | 0.05 µg/mL | 44% | –

Reference: patent publication US6677331B2, “Carbapenem derivatives” (Meiji Seika Kaisha, Ltd., priority 1998, dated 2004)
